# Tests used:
# [1] = tested on: transcription in Drosophila extract depleted of P-TEFb; test: Transcription activity of recombinant protein added into Drosophila extract depleted of P-TEFb (Table 1); assay type: biochemical
# RNA polymerase II [2] = test: Kinase assay of recombinant P-TEFb subunits with RNA polymerase II as substrate (Table 1); assay type: biochemical, Drosophila
# Experimental: 0.4 μl of purified RNA polymerase II and various protein samples were mixed in 18 μl of 55 mM HMK. The reaction was then initiated by the addition of 2 μl of a solution containing 2 μCi of [γ-^32P]ATP (ICN) and unlabeled ATP at 10 μM, or only unlabeled ATP at concentrations from 1 to 100 μM or other NTPs or dNTPs at concentrations of 1 to 100 μM. Reactions were incubated for the indicated times at 23° C. and then terminated with SDS loading buffer. Samples were analyzed on a 6–15% SDS polyacrylamide gel which was silver stained, dried and subjected to autoradiography if the assay contained label.
# Using the CTD Kinase assay, as previously described in Example 2, Section A.7, both HBL1-1 (SEQ ID NO:45), HBL2(SEQ ID NO:47) and HBL3 (SEQ ID NO:50) were substituted for the large subunit in the Drosophila transcription system. Alone “PITARLE” has little kinase activity and no detectable activity in transcription.
# RNA polymerase II [3] = biological target: T1, RNA polymerase II (Drosophila melanogaster, UniProt P04052); test: Immobilized template add-back assay, elongation by isolated early elongation complexes; assay type: biochemical; conditions: added prior to the chase
# T1 construct: endogenous in cells; host or cells: Drosophila Kc cell nuclear extract; washed early elongation complexes on immobilized actin A2 template
# Experimental: Since P-TEF was first identified using an immobilized template assay, the ability of HeLa NE to generate DRB-sensitive elongation complexes when added back to isolated EECs was examined. Drosophila actin A2 DNA template and Kc cell NE was used to form EECs containing Drosophila RNA polymerase II. An immobilized A2 template was preincubated with Kc cell NE and then pulsed for 30 sec with [α-^32P] CTP. The resulting EECs were isolated, and washed. Only short transcripts were produced during the pulse and the labeled […] were removed by the washing protocol. […] However, addition of Kc cell NE to the chase, allowed some EECs to enter productive elongation and make long DRB-sensitive transcripts. When a HeLa NE that was capable of producing high levels of DRB-sensitive transcription was added to the chase, DRB-sensitive transcripts were also produced.
# T1 sequence (P04052 whole entry): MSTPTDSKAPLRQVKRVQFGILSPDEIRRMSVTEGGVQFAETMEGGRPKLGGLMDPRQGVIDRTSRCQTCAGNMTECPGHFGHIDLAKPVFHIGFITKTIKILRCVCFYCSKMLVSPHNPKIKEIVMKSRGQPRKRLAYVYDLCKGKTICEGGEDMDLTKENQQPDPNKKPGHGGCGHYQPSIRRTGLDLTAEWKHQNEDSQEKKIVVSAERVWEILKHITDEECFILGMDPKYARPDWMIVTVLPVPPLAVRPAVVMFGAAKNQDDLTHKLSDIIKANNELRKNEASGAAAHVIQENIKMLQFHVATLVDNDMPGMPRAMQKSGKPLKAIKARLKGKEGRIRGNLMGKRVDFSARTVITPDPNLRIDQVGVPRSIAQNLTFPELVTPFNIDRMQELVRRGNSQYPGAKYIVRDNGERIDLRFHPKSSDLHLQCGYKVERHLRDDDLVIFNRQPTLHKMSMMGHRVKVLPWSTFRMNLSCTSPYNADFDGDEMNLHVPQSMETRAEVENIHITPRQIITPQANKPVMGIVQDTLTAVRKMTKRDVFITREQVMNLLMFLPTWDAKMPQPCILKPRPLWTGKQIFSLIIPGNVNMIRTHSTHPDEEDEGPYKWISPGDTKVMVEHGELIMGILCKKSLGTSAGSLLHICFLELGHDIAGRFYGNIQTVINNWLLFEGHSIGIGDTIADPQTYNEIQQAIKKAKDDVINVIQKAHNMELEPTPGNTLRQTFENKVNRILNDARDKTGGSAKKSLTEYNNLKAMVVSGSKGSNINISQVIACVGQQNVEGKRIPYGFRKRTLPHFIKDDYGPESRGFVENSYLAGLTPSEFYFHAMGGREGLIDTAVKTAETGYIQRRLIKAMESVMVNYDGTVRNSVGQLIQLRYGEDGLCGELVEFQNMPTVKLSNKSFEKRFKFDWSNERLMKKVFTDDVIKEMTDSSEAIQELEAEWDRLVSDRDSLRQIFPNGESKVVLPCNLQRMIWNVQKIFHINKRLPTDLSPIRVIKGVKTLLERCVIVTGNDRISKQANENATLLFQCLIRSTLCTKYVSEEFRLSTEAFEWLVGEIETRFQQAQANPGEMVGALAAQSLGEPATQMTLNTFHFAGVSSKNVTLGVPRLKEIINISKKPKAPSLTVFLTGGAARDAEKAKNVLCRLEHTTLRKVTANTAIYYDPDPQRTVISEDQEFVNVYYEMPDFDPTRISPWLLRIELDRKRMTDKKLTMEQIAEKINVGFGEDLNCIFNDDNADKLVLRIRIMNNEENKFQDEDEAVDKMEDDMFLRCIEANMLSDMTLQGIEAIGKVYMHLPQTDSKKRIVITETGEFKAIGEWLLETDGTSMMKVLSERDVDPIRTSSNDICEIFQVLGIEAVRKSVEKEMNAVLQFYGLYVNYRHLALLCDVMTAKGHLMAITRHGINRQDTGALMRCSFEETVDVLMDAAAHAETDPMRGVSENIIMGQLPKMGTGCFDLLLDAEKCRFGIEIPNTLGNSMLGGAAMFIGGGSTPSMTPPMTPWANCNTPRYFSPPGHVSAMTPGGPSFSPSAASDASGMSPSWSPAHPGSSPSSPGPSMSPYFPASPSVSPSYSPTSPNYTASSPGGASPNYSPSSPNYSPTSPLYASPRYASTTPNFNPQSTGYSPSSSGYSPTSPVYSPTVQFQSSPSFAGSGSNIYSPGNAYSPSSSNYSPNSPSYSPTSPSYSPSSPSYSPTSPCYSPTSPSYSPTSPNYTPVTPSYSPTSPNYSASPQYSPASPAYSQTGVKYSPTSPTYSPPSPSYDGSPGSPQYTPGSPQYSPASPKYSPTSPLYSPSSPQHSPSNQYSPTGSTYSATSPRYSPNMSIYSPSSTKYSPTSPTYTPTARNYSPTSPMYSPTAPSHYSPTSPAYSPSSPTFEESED
Substance,Transcription activity [1],Kinase activity (RNA polymerase II [2]; RNA polymerase II as substrate),stimulation of the activity of PITALRE by the cyclin subunit (RNA polymerase II [2]; phosphorylation of the CTD of RNA polymerase II),elongation by all EECs (RNA polymerase II [3])
"PITALRE: human P-TEFb small (kinase) subunit, SEQ ID NO:6, HIS-tagged, baculovirus expressed",none,very little,approximately 100 fold,
α-amanitin,,,,inhibited

# — patent US7018836B1, “P-TEFb compositions, methods and screening assays” (priority 1996, dated 2006)
